Here are results for two compounds from patent US10272098B2, “Chelated drug delivery systems” (Drexel University, priority 2013, dated 2019).

Where a name gives a salt, the structure may show the parent alone.

For series [1], the system named is MDA-MB-231 cells. As to the kind of experiment: Fresh DOX dose- and time-dependent treatment.
Series [2] concerns NIH 3T3 fibroblasts. In words: Fresh DOX dose- and time-dependent treatment. The conditions noted are these: nine-day treatment with 0.2 μg/mL DOX; vs untreated control. It is filed as cell-based. From the text:
The medium was changed every 24 hr.

For series [3] the following is noted: cited from earlier work.
The subject of series [4] is 3T3 fibroblast cells. In words: Cytotoxicity cell counting assay in 3T3 fibroblasts. The class given is cell-based. The settings on record: 24 h; complex with 4 μg MH in 100 μl or 40 μg/mL fresh MH; vs untreated control. The protocol:
After 24 h, cell viability was determined using a cell counting assay (Roche) according to the manufacturer's instruction, and cell morphology was imaged by staining the cells with cresyl violet (0.5 mg/mL) for 30 min after the cells were fixed. In vitro cytotoxicity of the polyelectrolyte MH/DS/metal ion complexes were studied by using 3T3 fibroblast cells. […] Cell morphology was examined after treatment with MH/DS/metal ion complexes (FIGS. 7C-7F).

For series [5] the following is noted: systemic administration of 200 mg MH daily (3 mg/kg); human subjects; cited from earlier work.

`COc1cccc2c1C(=O)c1c(O)c3c(c(O)c1C2=O)C[C@@](O)(C(=O)CO)C[C@@H]3O[C@H]1C[C@H](N)[C@H](O)[C@H](C)O1` [DOX, doxorubicin]: in series [1] (DOX 0.2 μg/mL), the “time in which all the cancer cells were completely killed” value was 8 days. In series [1] (for 5-9 days), the “DOX concentration range that effectively kills cancer cells with minimal fibroblast cytotoxicity” value was in the range of 0.1 to 0.4 µg/mL. In addition, the “cell viability of fibroblasts” value in series [2] is “did not significantly reduce the cell viability”. The “time stock solution is stable” value in series [3] (4 degree) is given as 1 month. Further, the DOX degraded in series [3] (cell culture medium at 37° C., 4 days) is listed as 30%-40%. Besides, the “time solution is stable” value in series [3] (room temperature, Adriamycin instruction booklets) is recorded as 7 days.

For the compound `CN(C)c1ccc(O)c2c1C[C@H]1C[C@H]3[C@H](N(C)C)C(O)=C(C(N)=O)C(=O)[C@@]3(O)C(O)=C1C2=O` [MH, Minocycline hydrochloride], the “3T3 fibroblast viability (cell counting assay)” value in series [4] is reported as “no significant difference”. Besides, in series [5], the “MH in the cerebrospinal fluid (CSF)” value is “about 0.5 μg/mL”.
